Legend:
[1] = test system: E. coli O157:H7 ATCC 43889; test: Spot-on-lawn antimicrobial activity; format: cell-based, Escherichia coli; conditions: broth medium LB
Procedure: (§1) Spot-on-lawn method [He, Z., et al., Appl. Environ. Microbiol., (2007) 73:168-178] was used for the bioassay of antimicrobial activity. Bacterial indicators were incubated at 37° C. for 24 h, except Pseudomonas putida, Clostridium difficile and methycillin resistant Staphylococcus aureus which were incubated for 48 h (Table 1). The indicator overlay was prepared by pouring 10 ml soft agar (seeded with 10 μL indicator culture) onto tryptose agar as basal medium in a petri dish. Purified antimicrobials were two-fold serially diluted and aliquots (10 μL each) were spotted onto the soft agar. The plates were incubated overnight and inspected for the presence of growth inhibition zones. Antimicrobial activity was expressed in arbitrary units (AU)/mL; this value is the reciprocal of the highest dilution displaying a zone of inhibition corresponding to 1 mL of the non-diluted antimicrobial preparation.
(§2) Purified paenibacterin was used for the antimicrobial spectrum test. Microorganisms tested for sensitivity to this compound included pathogenic (e.g., Salmonella Typhimurium, Escherichia coli O157:H7, Listeria monocytogenes, and Staphylococcus aureus) and non-pathogenic (e.g., Escherichia coli K-12, Pseudomonas putida, and Enterococcus faecalis) bacteria (Table 1).

[2] = test system: E. coli O157:H7 EDL 933; test: Spot-on-lawn antimicrobial activity; format: cell-based, Escherichia coli; conditions: broth medium LB
Procedure: as §1, §2

[3] = test system: S. enterica ser. Enteritidis; test: Spot-on-lawn antimicrobial activity; format: cell-based, Salmonella enterica; conditions: TSBYE
Procedure: as §1, §2

[4] = test system: S. enterica ser. Typhimurium DT 109; test: Spot-on-lawn antimicrobial activity; format: cell-based, Salmonella enterica; conditions: TSBYE
Procedure: as §1, §2

[5] = test system: B. cereus ATCC 11178; test: Spot-on-lawn antimicrobial activity; format: cell-based, Bacillus cereus; conditions: TSBYE
Procedure: as §1, §2

[6] = test system: C. difficile CL148; test: Spot-on-lawn antimicrobial activity; format: cell-based, Clostridium difficile; conditions: BHIYE
Procedure: as §1, §2

[7] = test system: L. monocytogenes; test: Antimicrobial spectrum test; format: cell-based, Listeria monocytogenes; conditions: gram-positive pathogens such as L. monocytogenes
Procedure: as §1, §2

[8] = Enzyme sensitivity test (residual antimicrobial activity, spot-on-lawn); format: physicochemical; conditions: 10 h
Procedure: Crude extracts of Paenibacillus thiaminolyticus OSY-SE were tested for sensitivity to heat and pH change while purified antimicrobial compounds were used for enzyme sensitivity tests. For thermal stability test, crude extract solutions were exposed to 37° C., 55° C. (in incubators) or 80° C. (in a water bath) for 24 h or autoclaved at 121° C. for 5 minutes. For pH stability test, crude extract solutions were diluted with 25 mM phosphate buffer (pH 7.0) and adjusted to pH 3.0, 5.0 and 9.0, followed by incubation for 12 h. Samples were neutralized to pH 7.0 before the antimicrobial activity test. Enzyme sensitivity tests were performed in 25 mM phosphate buffer (pH 7.0) with trypsin (type I, 12705 U/mg), lipase (type I, 9 U/mg), pronase (6.31 U/mg), α-glucosidase (type I, 100U/1.93 mg), lysozyme (46400 U/mg) and in 25 mM phosphate buffer (pH 8.0) with polymyxin acylase (16 U/mg). All enzymes were purchased from Sigma (St. Louis, Mo.) except polymyxin acylase (Wako Chemicals USA, Inc., Richmond, Va.). Digesting solutions were prepared at concentration of 0.1 mg/mL for polymyxin acylase and 0.5 mg/mL for others. These mixtures of enzyme and antimicrobial compound (40 μL of final volume) were incubated at 37° C. for 10 h. Quantitative spot-on-lawn bioassay was used to measure antimicrobial activities after these treatments.

[9] = test system: PAE.2281; test: MIC, CLSI broth microdilution, Gram-negative clinical isolates; format: cell-based, Pseudomonas aeruginosa
Procedure: (§3) Plates were incubated at 35° C. for 24 h.
(§4) The activity of paenibacterin was also tested against clinical isolates of the following Gram-negative bacterial strains: four strains of the species Pseudomonas aeruginosa (PAE), three strains of the species Acinetobacter baumannii (ABA), two strains of the species Escherichia coli (ECO), and four strains of the species Klebsiella pneumoniae (KPN). Particularly, the strains of Gram-negative bacteria included polymyxin B-resistant (PMB-R) and polymyxin B-sensitive (PMB-S) strains of each above listed species. The MICs were determined using the above described CLSI broth microdilution method, in which the method was performed with both non-binding surface coated (NBS) and polystyrene (PS) 96-well plates (Tables 11 and 12, respectively). The MICs were generally lower in the NBS 96-well plates as compared to the PS 96-well plates.

[10] = test system: PAE.2325; test: as above; format: cell-based, Pseudomonas aeruginosa
Procedure: as §3, §4

[11] = test system: PAE.44; test: as above; format: cell-based, Pseudomonas aeruginosa
Procedure: as §3, §4

[12] = test system: PAE.999; test: as above; format: cell-based, Pseudomonas aeruginosa
Procedure: as §3, §4

[13] = test system: polymixin B-sensitive strains of Escherichia coli; test: MIC, Table 11; format: cell-based; conditions: NBS plates
Procedure: as §3, §4

[14] = test system: polymixin B-sensitive strains of Klebsiella pneumoniae; test: MIC, Table 11; format: cell-based; conditions: NBS plates
Procedure: as §3, §4

[15] = test system: polymixin B-sensitive strains of Pseudomonas aeruginosa; test: MIC, Table 11; format: cell-based; conditions: NBS plates
Procedure: as §3, §4

[16] = test system: polymyxin B-resistant and polymyxin B-sensitive strains of Acinetobacter baumannii; test: MIC, Table 11; format: cell-based; conditions: Table 11 (NBS plates)
Procedure: as §3, §4

In the case of paenibacterin, the “Antimicrobial activity (AU/ml)” value [1] is reported as 1600 AU/ml, the “Antimicrobial activity (AU/ml)” value [2] is reported as 1600 AU/ml and the “Antimicrobial activity (AU/ml)” value [3] is reported as 800 AU/ml. For the same substance, the “Antimicrobial activity (AU/ml)” value [4] was 400 AU/ml, the “Antimicrobial activity (AU/ml)” value [5] was 200 AU/ml and the “Antimicrobial activity (AU/ml)” value [6] was 0 AU/ml. For the same substance, the “Antimicrobial activity (AU/ml)” value ([6]; listed as Paenibacterin) was “no activity”, the “Antimicrobial activity (in words)” value [7] was “good activity” and the “Antimicrobial activity after enzyme treatment” value ([8]; lipase 0.5 mg/mL, pH 7.0, 37° C.) was “resistant”. For the same substance, the “Antimicrobial activity after enzyme treatment” value ([8]; lysozyme 0.5 mg/mL, pH 7.0, 37° C.) was “resistant”, the “Antimicrobial activity after enzyme treatment” value ([8]; polymyxin acylase 0.1 mg/mL, pH 8.0, 37° C.) was “activity was lost” and the “Antimicrobial activity after enzyme treatment” value ([8]; pronase 0.5 mg/mL, pH 7.0, 37° C.) was “activity was lost”. The “Antimicrobial activity after enzyme treatment” value ([8]; trypsin 0.5 mg/mL, phosphate buffer pH 7.0, 37° C.) was “resistant”, the “Antimicrobial activity after enzyme treatment” value ([8]; α-glucosidase 0.5 mg/mL, pH 7.0, 37° C.) was “resistant” and the “Minimum inhibitory concentration (MIC)” value ([9]; NBS 96-well plates) was 32 to 64 µg/mL. For the same substance, the “Minimum inhibitory concentration (MIC)” value ([9]; PS 96-well plates) was 64 µg/mL, the “Minimum inhibitory concentration (MIC)” value ([10]; NBS 96-well plates) was 16 µg/mL and the “Minimum inhibitory concentration (MIC)” value ([10]; PS 96-well plates) was 64 µg/mL. The “Minimum inhibitory concentration (MIC)” value ([11]; non-binding surface coated (NBS) 96-well plates) was 8 µg/mL, the “Minimum inhibitory concentration (MIC)” value ([11]; polystyrene (PS) 96-well plates) was 64 µg/mL and the “Minimum inhibitory concentration (MIC)” value ([12]; NBS 96-well plates) was 8 µg/mL. For the same substance, the “Minimum inhibitory concentration (MIC)” value ([12]; PS 96-well plates) was 64 µg/mL, the MIC [13] was 8 µg/mL and the MIC [14] was 8 µg/mL. The MIC [15] was 8 µg/mL and the MIC [16] was 2 µg/mL.
